Assays:
[1] = biological target: BRD2(1,2) (Homo sapiens (Human), UniProt P25440); assay: AlphaScreen binding of compounds on BRD2 (D1+D2); details: read-out: IC50 against BRD2(1,2)
Text: (§1) Homogeneous time-resolved fluorescence technology (HTRF) was used to determine the binding effect of compounds on BRD4 (D1+D2) and BRDT (D1) proteins, as well as AlphaScreen method was used to detect the binding effect of compounds on BRD2 (D1+D2) and BRD3 (D1+D2) proteins.
(§2) The compounds were screened in vitro, and each compound was serially diluted to 10 concentrations. Four proteins BRD4 (D1+D2), BRDT (D1), BRD2 (D1+D2) and BRD3 (D1+D2) were chosen to determine the IC50 values of compounds (see Table 1).
(§3) 4. Compound treatment: The test compound was dissolved in dimethyl sulfoxide (DMSO), and the storage concentration was 10 mM.
6. AlphaScreen Detection Procedures:
1) Preparing One-Fold Concentration of Detection Buffer
One-fold concentration of detection buffer was prepared (Improved HEPES buffer)
2) Gradient Dilution of Compounds
Echo automatic sampler was used to transfer the compound to the detection plate for gradient dilution, so that the final concentration of dimethyl sulfoxide was 0.1%.
3) Preparation of Protein Solution
The protein was dissolved in one-fold concentration of detection buffer.
4) Preparation of Substrate Solution
The peptide was dissolved in one-fold concentration of detection buffer to prepare the substrate solution.
5) 5 μL protein solution was transferred to the detection plate, and one-fold concentration of detection buffer (5 μL) was placed in the negative control wells.
6) The plate was incubated for 15 min at room temperature.
7) 5 μL substrate solution was added to each well to start the reaction.
8) The plate was incubated for additional 60 min at room temperature.
9) Preparation of acceptor solution and donor solution in one-fold concentration of assay buffer Acceptor solution (15 μL) and donor solution (15 μL) were respectively added, and then incubated at room temperature for 60 min and protected against exposure to light.
10) The endpoint was read in EnSpire and Alpha mode.
The experimental data were recorded in an Excel file and equation (1) was used to get the inhibition rate. Inh%=(Max−Signal)/(Max−Min)*100 Equation (1):
The obtained data were input into GraphPad software, and equation (2) was used to obtain the IC50 value. Y=Bottom+(Top−Bottom)/(1+10^((Log IC50−X)*Hill Slope)) Formula (2): […]
Wherein, Y axis was the inhibition rate, and the X axis was the compound concentration.

[2] = biological target: BRDT(D1) (Homo sapiens (Human), UniProt Q58F21); assay: HTRF binding of compounds on BRDT (D1); details: read-out: IC50 against BRDT(D1)
Text: as §1, §2, §3
5. Steps for Homogeneous Time-Resolved Fluorescence Detection:
1) According to the arrangement of the detection plate, all compounds were diluted in Echo plate.
The final dilution concentration of DMSO is 0.1%.
2) The compound or DMSO was transferred to a 384-well detection plate with the Echo automatic sampler.
3) Two-fold concentration of the mixture of protein and peptide was added to the detection plate.
4) Two-fold concentration of mixed detection solution was added to the test plate, and shaken for 30 s.
5) Incubating for 2 h at room temperature.
6) Fluorescence signal was read on Envision multi-function microplate reader (excitation light wavelength being 340 nm, and emission light wavelength being 615 nm and 665 nm).
The experimental data were recorded in an Excel file, and equation (1) was used to obtain the inhibition rate. Inh%=(Max−Signal)/(Max−Min)*100 Equation (1):
The obtained data was recorded in GraphPad software, and equation (2) was used to provide the IC50 values. Y=Bottom+(Top−Bottom)/(1+10^((Log IC50−X)*Hill Slope)) Equation (2): […]
Y axis was the inhibition rate, and X axis was the compound concentration.

[3] = tested on: MCF-7 cells; assay: Inhibition of proliferation of MCF-7 cells (CCK-8); assay type: cell-based, human; details: for IC50: Homo sapiens, MCF7, 144 h, 6 days, CCK-8
Protocol: • MCF-7 cell line (Cell Bank of Chinese Academy of Sciences, TCHu74) • FBS (Gibco, Cat. No. 10099-141) • 0.01M PBS (Biosharp, Cat. No. 162262) • RIPM1640 (Hyclone, Cat. No. 308090.01) • Penicillin-Streptomycin (Hyclone, Cat. No. SV30010) • Cell counting kit-8 (Signalway Antibody, Cat. No. CP002) • DMSO (Sigma, Cat. No. D5879) • Centrifuge Tube, 15 ml (Excell Bio, Cat. No. CS015-0001) • Cell Culture Dish, (Excell Bio, Cat. No. CS016-0128) • 96-well cell culture cluster (Corning, Cat. No. 3599) 3. Experimental Method
1) MCF-7 cells were subcultured in cell culture media, and the cells in good growth condition were seeded in a 96-well plate, 80 μL for each well, thus the number of cells per well was 1000, then the plate was cultured overnight in a 37° C., 5% CO2 cell incubator.
2) The drug was prepared with dimethyl sulfoxide (DMSO) as a 10 mM stock solution. Prior to use, the solution was diluted 3 times with DMSO, and then diluted with a 3-fold gradient to obtain 9 concentration gradients. Then, each concentration of the compound was further diluted 200 times with the culture media (to ensure that DMSO concentration in the culture system was 0.1%), 2 repeat wells for each concentration. The diluted solution of each compound (20 μL) was added to the cell culture well (with a final concentration of 10 μM, 3.3 μM, 1.1 μM . . . ), and shaken gently for mixing.
In addition, three negative control wells containing only cells and three blank control wells containing only culture medium (20 μL DMSO diluted 200 times with culture medium being added to six wells) were included.
(1) After culturing for 6 days, 10 μL CCK-8 was added to each well and cultured for additional 2.5 h in a 37° C., 5% CO2 cell incubator.
(2) The absorbance (OD value) at 450 nm was measured with a multifunctional microplate reader.
(3) The data was analyzed by the Dose-response-inhibition equation in the software GraphPad Prism6, and the IC50 value was obtained.

Chain of BRD2(1,2) (P25440 65-459): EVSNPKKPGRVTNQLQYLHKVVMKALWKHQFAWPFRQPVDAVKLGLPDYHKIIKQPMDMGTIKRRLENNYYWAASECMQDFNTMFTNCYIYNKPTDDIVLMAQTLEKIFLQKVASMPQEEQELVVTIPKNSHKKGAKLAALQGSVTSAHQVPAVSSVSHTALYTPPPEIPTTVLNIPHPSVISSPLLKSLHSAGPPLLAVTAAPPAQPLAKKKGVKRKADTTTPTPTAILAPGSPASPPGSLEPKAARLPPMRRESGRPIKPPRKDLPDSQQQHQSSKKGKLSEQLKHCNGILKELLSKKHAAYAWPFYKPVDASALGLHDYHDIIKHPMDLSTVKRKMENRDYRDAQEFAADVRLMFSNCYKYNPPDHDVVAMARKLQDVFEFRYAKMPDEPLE

IC50 [1] [nM] | IC50 [2] [nM] | IC50 [3] [nM] | SMILES | inhibitory action on MCF-7 cells (in words) [3]
2.3 | 30 | 54 | [2H]C([2H])([2H])n1cc(-c2cc(NS(=O)(=O)CC)ccc2N2CCC3(CC2)CC3)c2cc[nH]c2c1=O [Compound 41] | –
– | – | 100 | [2H]C([2H])([2H])n1cc(-c2cc(S(=O)(=O)CC)ccc2N2CCC3(CC3)C2)c2cc[nH]c2c1=O [Compound 55, 4-(5(ethylsulfonyl)-2-(5-aza-spiro[2.4]heptan-5-yl)phenyl)-6-trideuteromethyl-1H-pyrrolo[2,3-c]pyridin-7(6H)-one] | –
2 | 19 | 14 | [2H]C([2H])([2H])n1cc(-c2cc(S(C)(=O)=O)ccc2N2CCC3(CC2)CC3(F)F)c2cc[nH]c2c1=O [Compound 184, 4-(2-(1,1-difluoro-6-aza-spiro[2.5]octan-6-yl)-5-(methylsulfonyl)phenyl)-6-trideuteromethyl-1H-pyrrolo[2,3-c]pyridin-7(6H)-one] | effective inhibitory action
1.8 | 40 | – | [2H]C([2H])([2H])n1cc(-c2cc(S(C)(=O)=O)c(F)cc2N2CCC3(CC2)CC3(F)F)c2cc[nH]c2c1=O [Compound 219, 4-(2-(1,1-difluoro-6-aza-spiro[2.5]octan-6-yl)-4-fluoro-5-(methylsulfonyl)phenyl)-6-trideuteromethyl-1H-pyrrolo[2,3-c]pyridin-7(6H)-one] | –
